Experimental data as given in patent US20040087633A1, “Methylidene oxazolidinone compound and preparation method thereof” (Korea Institute of Science and Technology, priority 2002, published 2004).
Like-named read-outs stand apart in the source and are kept apart here.

Legend:
Assay in all cases: Anti-microbial activity test in vitro (agar dilution MIC)
[1] = test system: CRSA C1062; type: cell-based, Staphylococcus aureus; conditions: for MIC: Staphylococcus aureus, read-out: Minimum inhibition concentration (MIC)
Experimental: (§1) Anti-microbial activity test in vitro
(§2) Strains were cultivated for 18 hours at 37° C. in Agar Dilution method using Mueller Hinton Agar, and then plane plates inoculated with the strains by diluting them two times gradually were aligned in a row. Minimum inhibition concentration (MIC, μg/ml) for the representative compounds of the present invention, Linezolid (LZD) and vancomycin (VAN) were decided through visual observation, and the results are shown in the following tables 2 and 3.

[2] = test system: CRSA C6043; type: cell-based, Staphylococcus aureus; conditions: for MIC: Staphylococcus aureus, read-out: Minimum inhibition concentration (MIC)
Experimental: as §1, §2

[3] = test system: MRSA C2207; type: cell-based, Staphylococcus aureus; conditions: for MIC: Staphylococcus aureus, read-out: Minimum inhibition concentration (MIC)
Experimental: as §1, §2

[4] = test system: MRSA C5100; type: cell-based, Staphylococcus aureus; conditions: for MIC: Staphylococcus aureus, read-out: Minimum inhibition concentration (MIC)
Experimental: as §1, §2

[5] = test system: MRSA C6068; type: cell-based, Staphylococcus aureus; conditions: for MIC: Staphylococcus aureus, read-out: Minimum inhibition concentration (MIC)
Experimental: as §1, §2

[6] = test system: MSSA C2214; type: cell-based, Staphylococcus aureus; conditions: for MIC: Staphylococcus aureus, read-out: Minimum inhibition concentration (MIC)
Experimental: as §1, §2

[7] = test system: MSSA C7142; type: cell-based, Staphylococcus aureus; conditions: for MIC: Staphylococcus aureus, read-out: Minimum inhibition concentration (MIC)
Experimental: as §1, §2

[8] = test system: E. faecalis ATCC29212; type: cell-based; conditions: for MIC: Enterococcus faecalis, read-out: Minimum inhibition concentration (MIC)
Experimental: as §1, §2

[9] = test system: E. faecalis C6288; type: cell-based; conditions: for MIC: Enterococcus faecalis, read-out: Minimum inhibition concentration (MIC)
Experimental: as §1, §2

[10] = test system: E. faecalis C6291; type: cell-based; conditions: for MIC: Enterococcus faecalis, read-out: Minimum inhibition concentration (MIC)
Experimental: as §1, §2

[11] = test system: E. faecium C2252; type: cell-based; conditions: for MIC: Enterococcus faecium, read-out: Minimum inhibition concentration (MIC)
Experimental: as §1, §2

[12] = test system: E. faecium C6301; type: cell-based; conditions: for MIC: Enterococcus faecium, read-out: Minimum inhibition concentration (MIC)
Experimental: as §1, §2

[13] = test system: S. aureus ATCC 29213; type: cell-based; conditions: Agar Dilution method, Mueller Hinton Agar, 18 hours at 37° C.
Experimental: as §1, §2

[14] = test system: S. epidermidis ATCC12228; type: cell-based; conditions: for MIC: Staphylococcus epidermidis, read-out: Minimum inhibition concentration (MIC)
Experimental: as §1, §2

[15] = test system: S. epidermidis C2230; type: cell-based; conditions: for MIC: Staphylococcus epidermidis, read-out: Minimum inhibition concentration (MIC)
Experimental: as §1, §2

[16] = test system: S. epidermidis C2235; type: cell-based; conditions: for MIC: Staphylococcus epidermidis, read-out: Minimum inhibition concentration (MIC)
Experimental: as §1, §2

[17] = test system: S. pyogenes ATCC8668; type: cell-based; conditions: for MIC: Streptococcus pyogenes, read-out: Minimum inhibition concentration (MIC)
Experimental: as §1, §2

[18] = test system: S. pyogenes C6003; type: cell-based; conditions: for MIC: Streptococcus pyogenes, read-out: Minimum inhibition concentration (MIC)
Experimental: as §1, §2

[19] = test system: S. pyogenes C6012; type: cell-based; conditions: for MIC: Streptococcus pyogenes, read-out: Minimum inhibition concentration (MIC)
Experimental: as §1, §2

[20] = test system: VRE C6487; type: cell-based, Enterococcus faecium; conditions: for MIC: Enterococcus, read-out: Minimum inhibition concentration (MIC)
Experimental: as §1, §2

[21] = test system: VRE C6488; type: cell-based, Enterococcus faecium; conditions: for MIC: Enterococcus, read-out: Minimum inhibition concentration (MIC)
Experimental: as §1, §2

[22] = CRSA C1062, Agar Dilution method, Mueller Hinton Agar, 18 hours at 37° C.
[23] = CRSA C6043, Agar Dilution method, Mueller Hinton Agar, 18 hours at 37° C.
[24] = MRSA C2207, Agar Dilution method, Mueller Hinton Agar, 18 hours at 37° C.
[25] = MRSA C5100, Agar Dilution method, Mueller Hinton Agar, 18 hours at 37° C.
[26] = MRSA C6068, Agar Dilution method, Mueller Hinton Agar, 18 hours at 37° C.
[27] = MSSA C2214, Agar Dilution method, Mueller Hinton Agar, 18 hours at 37° C.
[28] = MSSA C7142, Agar Dilution method, Mueller Hinton Agar, 18 hours at 37° C.
[29] = E. faecalis ATCC29212, Agar Dilution method, Mueller Hinton Agar, 18 hours at 37° C.
[30] = E. faecalis C6288, Agar Dilution method, Mueller Hinton Agar, 18 hours at 37° C.
[31] = E. faecalis C6291, Agar Dilution method, Mueller Hinton Agar, 18 hours at 37° C.
[32] = E. faecium C2252, Agar Dilution method, Mueller Hinton Agar, 18 hours at 37° C.
[33] = E. faecium C6301, Agar Dilution method, Mueller Hinton Agar, 18 hours at 37° C.
[34] = S. epidermidis ATCC12228, Agar Dilution method, Mueller Hinton Agar, 18 hours at 37° C.
[35] = S. epidermidis C2230, Agar Dilution method, Mueller Hinton Agar, 18 hours at 37° C.
[36] = S. epidermidis C2235, Agar Dilution method, Mueller Hinton Agar, 18 hours at 37° C.
[37] = S. pyogenes ATCC8668, Agar Dilution method, Mueller Hinton Agar, 18 hours at 37° C.
[38] = S. pyogenes C6003, Agar Dilution method, Mueller Hinton Agar, 18 hours at 37° C.
[39] = S. pyogenes C6012, Agar Dilution method, Mueller Hinton Agar, 18 hours at 37° C.
[40] = VRE C6487, Agar Dilution method, Mueller Hinton Agar, 18 hours at 37° C.
[41] = VRE C6488, Agar Dilution method, Mueller Hinton Agar, 18 hours at 37° C.

CCOC(=O)C(C#N)=C1CCN(c2ccc(N3C[C@H](CNC(C)=O)OC3=O)cc2F)CC1 [Compound 7, N-[[(5S)-3-[3-fluoro-4-((4-(1-ethoxycarbonyl-1-cyano)-methylidene)piperidinyl)phenyl]-2-oxo-5-oxazolidinyl]methyl]acetamide]
1 µg/mL: Minimum inhibition concentration (MIC) [14, 34] | Minimum inhibition concentration (MIC) [17, 37] | Minimum inhibition concentration (MIC) [19, 39]
2 µg/mL: Minimum inhibition concentration (MIC) [12, 33] | Minimum inhibition concentration (MIC) [15, 35] | Minimum inhibition concentration (MIC) [16, 36] | Minimum inhibition concentration (MIC) [20, 40] | Minimum inhibition concentration (MIC) [21, 41]
4 µg/mL: Minimum inhibition concentration (MIC) [1, 22] | Minimum inhibition concentration (MIC) [2, 23] | Minimum inhibition concentration (MIC) [3, 24] | Minimum inhibition concentration (MIC) [4, 25] | Minimum inhibition concentration (MIC) [5, 26] | Minimum inhibition concentration (MIC) [6, 27] | Minimum inhibition concentration (MIC) [7, 28] | Minimum inhibition concentration (MIC) [8, 29] | Minimum inhibition concentration (MIC) [9, 30] | Minimum inhibition concentration (MIC) [10, 31] | Minimum inhibition concentration (MIC) [11, 32] | Minimum inhibition concentration (MIC) [13] | Minimum inhibition concentration (MIC) [18, 38]

CC(=O)NC[C@H]1CN(c2ccc(N3CCC(=CC#N)CC3)c(F)c2)C(=O)O1 [Compound 8, N-[[(5S)-3-[3-fluoro-4-(4-cyanomethylidenepiperidinyl)-phenyl]-2-oxo-5-oxazolidinyl]methyl]acetamide]
1 µg/mL: Minimum inhibition concentration (MIC) [5, 26] | Minimum inhibition concentration (MIC) [16, 36]
2 µg/mL: Minimum inhibition concentration (MIC) [1, 22] | Minimum inhibition concentration (MIC) [2, 23] | Minimum inhibition concentration (MIC) [3, 24] | Minimum inhibition concentration (MIC) [4, 25] | Minimum inhibition concentration (MIC) [7, 28] | Minimum inhibition concentration (MIC) [8, 29] | Minimum inhibition concentration (MIC) [9, 30] | Minimum inhibition concentration (MIC) [10, 31] | Minimum inhibition concentration (MIC) [11, 32] | Minimum inhibition concentration (MIC) [12, 33] | Minimum inhibition concentration (MIC) [13] | Minimum inhibition concentration (MIC) [15, 35] | Minimum inhibition concentration (MIC) [18, 38]
4 µg/mL: Minimum inhibition concentration (MIC) [6, 27] | Minimum inhibition concentration (MIC) [20, 40] | Minimum inhibition concentration (MIC) [21, 41]
0.5 µg/mL: Minimum inhibition concentration (MIC) [14, 34] | Minimum inhibition concentration (MIC) [17, 37] | Minimum inhibition concentration (MIC) [19, 39]

CC(=O)NC[C@H]1CN(c2ccc(N3CCOCC3)c(F)c2)C(=O)O1 [LZD, Linezolid, reference compound]
2 µg/mL: MIC [2, 23] | MIC [4, 25] | MIC [5, 26] | MIC [9, 30] | MIC [10, 31] | MIC [11, 32] | MIC [12, 33] | MIC [15, 35] | MIC [16, 36] | MIC [18, 38] | MIC [20, 40] | MIC [21, 41]
4 µg/mL: MIC [1, 22] | MIC [3, 24] | MIC [6, 27] | MIC [7, 28] | MIC [8, 29]
0.5 µg/mL: MIC [14, 34] | MIC [17, 37] | MIC [19, 39]

CN[C@H](CC(C)C)C(=O)N[C@H]1C(=O)N[C@@H](CC(N)=O)C(=O)N[C@H]2C(=O)N[C@H]3C(=O)N[C@H](C(=O)N[C@H](C(=O)O)c4cc(O)cc(O)c4-c4cc3ccc4O)[C@H](O)c3ccc(c(Cl)c3)Oc3cc2cc(c3O[C@@H]2O[C@H](CO)[C@@H](O)[C@H](O)[C@H]2O[C@H]2C[C@](C)(N)[C@H](O)[C@H](C)O2)Oc2ccc(cc2Cl)[C@H]1O [VAN, vancomycin, reference compound]
> 32 µg/mL: MIC ([20]; VRE, 18 h) | MIC ([21]; VRE, 18 h)
4 µg/mL: MIC ([8]; ATCC29212, 18 h) | MIC ([18]; C6003, 18 h)
0.5 µg/mL: MIC ([19]; C6012, 18 h)
0.12 µg/mL: MIC ([17]; ATCC8668, 18 h)
2 µg/mL: MIC ([1]; 18 h) | MIC ([2]; 18 h) | MIC ([4]; MRSA, 18 h) | MIC ([7]; MSSA, 18 h) | MIC ([9]; C6288, 18 h) | MIC ([10]; C6291, 18 h) | MIC ([15]; C2230, 18 h) | MIC ([16]; C2235, 18 h)
1 µg/mL: MIC ([3]; MRSA, 18 h) | MIC ([5]; MRSA, 18 h) | MIC ([6]; MSSA, 18 h) | MIC ([11]; C2252, 18 h) | MIC ([12]; C6301, 18 h) | MIC ([14]; ATCC12228, 18 h)
